Test results from US20220033434A1, “ANDROGEN RECEPTOR NUCLEIC ACIDS AND USES THEREOF” (Avidity Biosciences, Inc., priority 2016, published 2022).
In the oligonucleotide strings, read from the 5' end, every base follows the letter of its sugar. An asterisk marks phosphorothioate; unmarked linkages are phosphodiester. Other units and linkages are bracketed, terminal groups are in braces. A string of capitals states the bases alone. d = 2'-deoxy (DNA); m = 2'-O-methyl; f = 2'-fluoro

Assays:
Format in all cases: cell-based, human
[1] = test system: AR FL (full length AR T877A LBD mutant); test: AR protein knock-down by Western blot after siRNA transfection in LNCaP cells: AR FL; details: 5 nM siRNA, 72 h post transfection, compared to controls
Procedure: (§1) In some instances, a set of AR siRNAs were identified that were predicted to be specific in human and non-human primates (NHP) and cross-reactive with NHPs but not rodent AR mRNA. To identify AR siRNAs that regulate both full length AR and clinically relevant AR splice variants, the search for AR siRNAs was focused primarily, but not exclusively, on exons 1, 2 and 3 of the AR gene, which are common to most AR isoforms. The resulting set of 50 AR siRNAs (Tables 1-3) was assessed in two prostate cancer lines that express high levels of either clinically relevant AR splice variants (22RV1, ATCC) or a full length AR T877A LBD mutant (LNCaP, ATCC). The response of LNCaP tumors in xenograft models to AR antagonists is known to correlate well with clinical responses.
(§2) To monitor their ability to downregulate various AR isoforms, each siRNA was formulated at a single final concentration of 5 nM with a commercially-available transfection reagent (Lipofectamine RNAiMAX, Life Technologies) according to the manufacturer's “forward transfection” instructions. At 50 h (22RV1) and 72 h (LNCaP) post transfection, cells were harvested, and lysed in RIPA buffer (Pierce) supplemented with HALT protease inhibitors (Pierce) using standard procedures. The protein concentration was determined using a BCA protein concentration kit (Pierce). To monitor AR levels in these lysates, proteins (30 ug/lane) were separated by PAGE on BOLT 4-12% Bis-Tris PA gels (Life Technologies), transferred to nitrocellulose using an iBlot dry blot system (Thermo Fisher), and probed with specific antibodies against a region of the N-terminal domain of human AR that is common in known clinically relevant splice variants (N20, Santa Cruz Biotech). A second antibody against α-Tubulin was used as control (P16, Santa Cruz Biotech). Levels of these proteins in the respective cell lysates were quantified on an Odyssey imaging system (LICOR) using appropriate secondary antibodies linked to IRDyes (800CW, 680RD).

AR FL(1) = test: AR protein knock-down by Western blot after siRNA transfection in 22RV1 cells: AR FL(1); details: 5 nM siRNA, 50 h post transfection, compared to controls
Procedure: as §1, §2

AR-SV(2) = test: AR protein knock-down by Western blot after siRNA transfection in 22RV1 cells: AR-SV(2); details: 5 nM siRNA, 50 h post transfection, compared to controls
Procedure: as §1, §2

AR-SV(3) = test: AR protein knock-down by Western blot after siRNA transfection in 22RV1 cells: AR-SV(3); details: 5 nM siRNA, 50 h post transfection, compared to controls
Procedure: as §1, §2

Substance	% KD AR Protein LNCaP AR FL [1]	% KD AR Protein 22RV1 AR FL(1) (AR FL(1))	% KD AR Protein 22RV1 AR-SV(2) (AR-SV(2))	% KD AR Protein 22RV1 AR-SV(3) (AR-SV(3))
XD-01840: AR siRNA with chemical modification, Id # 2935; sense X05375 (SEQ ID NO: 205), antisense X05376 (SEQ ID NO: 206) (sense mUmCfCmGfAmAfGmGfAmAfAmAfAmUfUmGfUmCfCdT*dT; antisense fGfGmAfCmAfAmUfUmUfUmUfCmCfUmUfCmGfGmAdT*dT)	97%	89%	89%	75%
XD-01841: AR siRNA with chemical modification, Id # 2936; sense X05377 (SEQ ID NO: 207), antisense X05378 (SEQ ID NO: 208) (sense mCmCfGmAfAmGfGmAfAmAfAmAfUmUfGmUfCmCfAdT*dT; antisense fUfGmGfAmCfAmAfUmUfUmUfUmCfCmUfUmCfGmGdT*dT)	99%	85%	85%	74%
XD-01842: AR siRNA with chemical modification, Id # 2940; sense X05379 (SEQ ID NO: 209), antisense X05380 (SEQ ID NO: 210) (sense mAmGfGmAfAmAfAmAfUmUfGmUfCmCfAmUfCmUfUdT*dT; antisense fAfAmGfAmUfGmGfAmCfAmAfUmUfUmUfUmCfCmUdT*dT)	101%	89%	94%	84%
XD-01843: AR siRNA with chemical modification, Id # 2961; sense X05381 (SEQ ID NO: 211), antisense X05382 (SEQ ID NO: 212) (sense mCmGfUmCfUmUfCmGfGmAfAmAfUmGfUmUfAmUfGdT*dT; antisense fCfAmUfAmAfCmAfUmUfUmCfCmGfAmAfGmAfCmGdT*dT)	94%	78%	75%	47%
XD-01844: AR siRNA with chemical modification, Id # 2962; sense X05383 (SEQ ID NO: 213), antisense X05384 (SEQ ID NO: 214) (sense mGmUfCmUfUmCfGmGfAmAfAmUfGmUfUmAfUmGfAdT*dT; antisense fUfCmAfUmAfAmCfAmUfUmUfCmCfGmAfAmGfAmCdT*dT)	81%	56%	54%	26%
XD-01845: AR siRNA with chemical modification, Id # 2966; sense X05385 (SEQ ID NO: 215), antisense X05386 (SEQ ID NO: 216) (sense mUmCfGmGfAmAfAmUfGmUfUmAfUmGfAmAfGmCfAdT*dT; antisense fUfGmCfUmUfCmAfUmAfAmCfAmUfUmUfCmCfGmAdT*dT)	99%	92%	92%	72%
XD-01846: AR siRNA with chemical modification, Id # 2975; sense X05387 (SEQ ID NO: 217), antisense X05388 (SEQ ID NO: 218) (sense mUmUfAmUfGmAfAmGfCmAfGmGfGmAfUmGfAmCfUdT*dT; antisense fAfGmUfCmAfUmCfCmCfUmGfCmUfUmCfAmUfAmAdT*dT)	94%	87%	94%	76%
XD-01847: AR siRNA with chemical modification, Id # 3020; sense X05389 (SEQ ID NO: 219), antisense X05390 (SEQ ID NO: 220) (sense mUmGfGmUfAmAfUmCfUmGfAmAfAmCfUmAfCmAfGdT*dT; antisense fCfUmGfUmAfGmUfUmUfCmAfGmAfUmUfAmCfCmAdT*dT)	69%	28%	−10%	−68%
XD-01848: AR siRNA with chemical modification, Id # 3101; sense X05391 (SEQ ID NO: 221), antisense X05392 (SEQ ID NO: 222) (sense mGmUfCmAfCmAfCmAfUmUfGmAfAmGfGmCfUmAfUdT*dT; antisense fAfUmAfGmCfCmUfUmCfAmAfUmGfUmGfUmGfAmCdT*dT)	101%	87%	31%	27%
XD-01849: AR siRNA with chemical modification, Id # 3105; sense X05393 (SEQ ID NO: 223), antisense X05394 (SEQ ID NO: 224) (sense mCmAfCmAfUmUfGmAfAmGfGmCfUmAfUmGfAmAfUdT*dT; antisense fAfUmUfCmAfUmAfGmCfCmUfUmCfAmAfUmGfUmGdT*dT)	92%	86%	7%	−40%
XD-01850: AR siRNA with chemical modification, Id # 3107; sense X05395 (SEQ ID NO: 225), antisense X05396 (SEQ ID NO: 226) (sense mCmAfUmUfGmAfAmGfGmCfUmAfUmGfAmAfUmGfUdT*dT; antisense fAfCmAfUmUfCmAfUmAfGmCfCmUfUmCfAmAfUmGdT*dT)	82%	86%	14%	5%
XD-01851: AR siRNA with chemical modification, Id # 3217; sense X05397 (SEQ ID NO: 227), antisense X05398 (SEQ ID NO: 228) (sense mUmGfCmUfCmUfCmUfAmGfCmCfUmCfAmAfUmGfAdT*dT; antisense fUfCmAfUmUfGmAfGmGfCmUfAmGfAmGfAmGfCmAdT*dT)	84%	50%	2%	8%
XD-01852: AR siRNA with chemical modification, Id # 3218; sense X05399 (SEQ ID NO: 229), antisense X05400 (SEQ ID NO: 230) (sense mGmCfUmCfUmCfUmAfGmCfCmUfCmAfAmUfGmAfAdT*dT; antisense fUfUmCfAmUfUmGfAmGfGmCfUmAfGmAfGmAfGmCdT*dT)	34%	16%	8%	10%
XD-01853: AR siRNA with chemical modification, Id # 3310; sense X05401 (SEQ ID NO: 231), antisense X05402 (SEQ ID NO: 232) (sense mAmCfGmAfCmCfAmGfAmUfGmGfCmUfGmUfCmAfUdT*dT; antisense fAfUmGfAmCfAmGfCmCfAmUfCmUfGmGfUmCfGmUdT*dT)	99%	91%	−43%	13%
XD-01854: AR siRNA with chemical modification, Id # 3416; sense X05403 (SEQ ID NO: 233), antisense X05404 (SEQ ID NO: 234) (sense mUmGfAmUfCmUfGmGfUmUfUmUfCmAfAmUfGmAfGdT*dT; antisense fCfUmCfAmUfUmGfAmAfAmAfCmCfAmGfAmUfCmAdT*dT)	93%	95%	38%	46%
XD-01855: AR siRNA with chemical modification, Id # 3462; sense X05405 (SEQ ID NO: 235), antisense X05406 (SEQ ID NO: 236) (sense mAmGfCmCfAmGfUmGfUmGfUmCfCmGfAmAfUmGfAdT*dT; antisense fUfCmAfUmUfCmGfGmAfCmAfCmAfCmUfGmGfCmUdT*dT)	75%	12%	−1%	−18%
XD-01856: AR siRNA with chemical modification, Id # 3469; sense X05407 (SEQ ID NO: 237), antisense X05408 (SEQ ID NO: 238) (sense mGmUfGmUfCmCfGmAfAmUfGmAfGmGfCmAfCmCfUdT*dT; antisense fAfGmGfUmGfCmCfUmCfAmUfUmCfGmGfAmCfAmCdT*dT)	99%	77%	−61%	−74%
